Laboratory results taken from patent US12344610B2, “APOL1 inhibitors and methods of use” (Maze Therapeutics, Inc., priority 2022, dated 2025).
Read-outs that look alike come from different tables or passages of the source.

Key:
Assay type in all cases: cell-based
Settings in all cases: geometric mean of at least 2 assay runs, † = single assay run
[1] = test system: Trypanosoma brucei Lister 427 VSG221 with APOL1 G1 recombinant protein; assay: APOL1 G1 trypanosome cell rescue assay (Example B5)
Summary of the method: (§1)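 Compounds in duplicate 2-fold, 11-point series with 0.4% DMSO final. Next, tag-free mature APOL1 variant protein went in from a 2 μg/mL solution, then trypanosomes to 250 per well. Plates incubated 20 h humidified at 37° C, equilibrated to room temperature, and CellTiter-Glo added for luminescence.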

[2] = test system: HEK293 cells overexpressing APOL1 G2; assay: APOL1 G2 HEK293 cell rescue assay (reversal of cell death caused by overexpression of APOL1)
Summary of the method: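 EC50 is the half-maximal effective concentration for reversing cell death driven by APOL1 G2 overexpression in HEK293 cells. Reported as geometric mean of at least 2 runs on separate days, each run averaging duplicate wells per plate; some values from a single run.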

[3] = test system: Trypanosoma brucei Lister 427 VSG221 with APOL1 G2 recombinant protein; assay: APOL1 G2 trypanosome cell rescue assay (Example B5)
Summary of the method: as §1

[4] = Trypanosoma brucei, 20 h, read-out: APOL1 G1 Trypanosome Rescue EC50, Trypanosoma brucei Lister 427 VSG221 with APOL1 G1 recombinant protein, 20 hours, CellTiter-Glo
[5] = Homo sapiens, HEK293, HEK293 overexpressing APOL1 G2
[6] = Trypanosoma brucei, 20 h, read-out: APOL1 G2 Trypanosome Rescue EC50, Trypanosoma brucei Lister 427 VSG221 with APOL1 G2 recombinant protein, 20 hours, CellTiter-Glo

Row | Structure (SMILES) | EC50 [1, 4] [nM] | EC50 [2, 5] [nM] | EC50 [3, 6] [nM] | EC50 ([1]; read-out: APOL1 G1 Trypanosome Rescue EC50, Trypanosoma brucei Lister 427 VSG221 with APOL1 G1 recombinant protein, 20 hours, CellTiter-Glo) [nM] | EC50 ([2]; HEK293 overexpressing APOL1 G2) [nM] | EC50 ([3]; read-out: APOL1 G2 Trypanosome Rescue EC50, Trypanosoma brucei Lister 427 VSG221 with APOL1 G2 recombinant protein, 20 hours, CellTiter-Glo) [nM]
1 | C[C@]1(O)C[C@@H](N2C(=O)C3(CC3)c3cc(OCCN4CCC5(CC4)C(=O)Nc4ccc(Cl)cc45)cnc32)C1 [Compound 460, 5-chloro-1′-(2-{2′-oxo-1′-[(cis)-3-hydroxy-3-methylcyclobutyl]-1′,2′-dihydrospiro[cyclopropane-1,3′-pyrrolo[2,3-b]pyridin]-5′-yloxy}ethyl)-1,2-dihydrospiro[indole-3,4′-piperidin]-2-one] | 118 | 54.1 | 53.7 |  |  | 
2 | C[C@]1(O)C[C@@H](n2cnc3cc(OCCN4CCC5(CC4)C(=O)Nc4ccc(Cl)cc45)cc(C(F)(F)F)c32)C1 [Compound 352, 5-chloro-1′-[2-({1-[(cis)-3-hydroxy-3-methylcyclobutyl]-7-(trifluoromethyl)-1H-1,3-benzodiazol-5-yl}oxy)ethyl]-1,2-dihydrospiro[indole-3,4′-piperidin]-2-one] | 18.8 | 8.6 | 8.22 |  |  | 
3 | CS(=O)(=O)c1ccc(OCCN2CCC3(CC2)C(=O)Nc2ccc(C#N)cc23)cc1 [Compound 71, 1′-[2-(4-methanesulfonylphenoxy)ethyl]-2-oxo-1,2-dihydrospiro[indole-3,4′-piperidine]-5-carbonitrile] | 1360 | 345 | 205 |  |  | 
4 | O=C1CCc2cc(OCCN3CCC4(CC3)C(=O)Nc3ccc(Cl)cc34)cnc2N1C1CC(CO)C1 (stereo not drawn) [Compound 326, 5-chloro-1′-[2-({8-[3-(hydroxymethyl)cyclobutyl]-7-oxo-5,6,7,8-tetrahydro-1,8-naphthyridin-3-yl}oxy)ethyl]-1,2-dihydrospiro[indole-3,4′-piperidin]-2-one] | 94.4 | 31.2 | 32.7 |  |  | 
5 | O=C1Nc2ccc(Cl)cc2C12CCN(CCOc1ccc3nccnc3c1)CC2 [Compound 62, 5-chloro-1′-[2-(quinoxalin-6-yloxy)ethyl]-1,2-dihydrospiro[indole-3,4′-piperidin]-2-one] | 390 | 165 | 120 |  |  | 
6 | C[C@]1(O)C[C@@H](N2C(=O)NCc3cc(OCCN4CCC5(CC4)C(=O)Nc4ccc(Cl)cc45)cnc32)C1 [Compound 356, 5-chloro-1′-[2-({2-oxo-1-[(cis)-3-hydroxy-3-methylcyclobutyl]-1H,2H,3H,4H-pyrido[2,3-d]pyrimidin-6-yl}oxy)ethyl]-1,2-dihydrospiro[indole-3,4′-piperidin]-2-one] | 113 | 50.6 | 37.4 |  |  | 
7 | C[C@]1(O)C[C@@H](n2cnc3cc(OCCN4CCC5(CC4)C(=O)Nc4ccc(Cl)cc45)cc(C#N)c32)C1 [Compound 439, 5-(2-{5-chloro-2-oxo-1,2-dihydrospiro[indole-3,4′-piperidin]-1′-yl}ethoxy)-1-[(cis)-3-hydroxy-3-methylcyclobutyl]-1H-1,3-benzodiazole-7-carbonitrile] | 51 | 14.9 | 20.2 |  |  | 
8 | NC(=O)c1ccc(OCCN2CCC3(CC2)C(=O)Nc2ccc(Cl)cc23)cc1 [Compound 45, 4-(2-{5-chloro-2-oxo-1,2-dihydrospiro[indole-3,4′-piperidin]-1′-yl}ethoxy)benzamide] | 747 | 122 | 162 |  |  | 
9 | C[C@]1(O)C[C@H](n2ncc3cc(OCCN4CCC5(CC4)C(=O)Nc4ccc(Cl)cc45)cnc32)C1 (single isomer, unassigned) [Compound 408, 5-chloro-1′-[2-({1-[(trans)-3-hydroxy-3-methylcyclobutyl]-1H-pyrazolo[3,4-b]pyridin-5-yl}oxy)ethyl]-1,2-dihydrospiro[indole-3,4′-piperidin]-2-one] | 121 | 23.1 | 43.6 |  |  | 
10 | CC1(O)CC(c2ncc(OCCN3CCC4(CC3)C(=O)Nc3ccc(Cl)cc34)cn2)C1 (single isomer, unassigned) [Compound 393, 5-chloro-1′-[2-({2-[(cis) or (trans)-3-hydroxy-3-methylcyclobutyl]pyrimidin-5-yl}oxy)ethyl]-1,2-dihydrospiro[indole-3,4′-piperidin]-2-one] |  |  |  | 360 | 80.5 | 120
11 | C[C@]1(O)C[C@@H](N2C(=O)Cc3cc(OCCN4CCC5(CC4)C(=O)Nc4ccc(Cl)cc45)cnc32)C1 [Compound 345, 5-chloro-1′-[2-({2-oxo-1-[(cis)-3-hydroxy-3-methylcyclobutyl]-1H,2H,3H-pyrrolo[2,3-b]pyridin-5-yl}oxy)ethyl]-1,2-dihydrospiro[indole-3,4′-piperidin]-2-one] | 242 | 36.4 | 80.2 |  |  | 
12 | Cn1ncc2cc(OCCN3CCC4(CC3)C(=O)Nc3ccc(Cl)cc34)ccc21 [Compound 68, 5-chloro-1′-{2-[(1-methyl-1H-indazol-5-yl)oxy]ethyl}-1,2-dihydrospiro[indole-3,4′-piperidin]-2-one] | 441 | 148 | 115 |  |  | 
13 | CC(C)(O)c1ncc(OCCN2CCC3(CC2)C(=O)Nc2ccc(Cl)cc23)cc1C(F)(F)F [Compound 371, 5-chloro-1′-(2-{[6-(2-hydroxypropan-2-yl)-5-(trifluoromethyl)pyridin-3-yl]oxy}ethyl)-1,2-dihydrospiro[indole-3,4′-piperidin]-2-one] | 21.9 | 17.2 | 9.16 |  |  | 
